Measured values as given in paper PMC6479757, “Coralmycin Derivatives with Potent Anti-Gram Negative Activity Produced by the Myxobacteria Corallococcus coralloides M23” (Molecules, 2019).
pIC50: −log10 of the molar value. Values after ≈ are worked out from the molar mass of the structure shown. Read-outs that look alike come from different tables or passages of the source.

Key:
[1] = test system: Pseudomonas aeruginosa KCTC 2004; experiment: Antibacterial susceptibility, broth microdilution MIC; type: cell-based; conditions: for MIC: KCTC2004, Pseudomonas aeruginosa KCTC 2004, 24-h incubation at 37 °C; for antibacterial activities against P. aeruginosa: in words
Experimental: (§1) Whole-cell antimicrobial activities were determined using a broth microdilution method described previously. Most of the test strains were grown to mid-log phase in Mueller–Hinton broth and diluted 1,000-fold in the same medium. Cells (10^5/mL) were dispensed at 0.2 mL/well in 96-well microtiter plates. Streptococcus pneumonia and Acinetobacter baumanii were grown in Todd–Hewitt medium and nutrient broth, respectively. […]. Cells were treated with 0.05% DMSO as a vehicle control. The MICs were determined in triplicate by serial two-fold dilutions of the test compounds. […] Bacterial growth was determined by measuring the absorption at 650 nm using a microtiter enzyme-linked immunosorbent assay (ELISA) reader (Molecular Devices Corporation, Sunnyvale, CA, USA).

QRSA CCARM 3519 = experiment: as above; type: cell-based; conditions: Staphylococcus aureus
Experimental: as §1

[2] = test system: Enterococcus faecalis KCTC 5191; experiment: as above; type: cell-based; conditions: KCTC5191, 24-h incubation at 37 °C
Experimental: as §1

[3] = test system: Klebsiella pneumoniae KCTC 22057; experiment: as above; type: cell-based; conditions: for MIC: KCTC22057, Klebsiella pneumoniae KCTC 22057, 24-h incubation at 37 °C; for growth inhibition of K. pneumonia: at 32 μg/mL
Experimental: as §1

MRSA CCARM 3506 = experiment: as above; type: cell-based; conditions: Staphylococcus aureus, 24-h incubation at 37 °C
Experimental: as §1

QRSA CCARM 3505 = experiment: as above; type: cell-based; conditions: Staphylococcus aureus
Experimental: as §1

E. coli KCTC 1682 = experiment: as above; type: cell-based; conditions: Escherichia coli
Experimental: as §1

[4] = test system: Streptococcus pneumonia KCTC 5412; experiment: as above; type: cell-based; conditions: Streptococcus pneumoniae, KCTC5412, Todd–Hewitt medium, 24-h incubation at 37 °C
Experimental: as §1

[5] = test system: Acinetobacter baumannii KCTC 2508; experiment: as above; type: cell-based; conditions: KCTC2508, nutrient broth, 24-h incubation at 37 °C
Experimental: as §1

E. coli CCARM 1356 = experiment: as above; type: cell-based; conditions: Escherichia coli, CCARM1356, 24-h incubation at 37 °C
Experimental: as §1

[6] = test system: Staphylococcus aureus RN 4220; experiment: as above; type: cell-based; conditions: RN4220, 24 h
Experimental: Whole-cell antimicrobial activities were determined using a broth microdilution method described previously. Most of the test strains were grown to mid-log phase in Mueller–Hinton broth and diluted 1,000-fold in the same medium. Cells (10^5/mL) were dispensed at 0.2 mL/well in 96-well microtiter plates. Streptococcus pneumonia and Acinetobacter baumanii were grown in Todd–Hewitt medium and nutrient broth, respectively. […] Cells were treated with 0.05% DMSO as a vehicle control. The MICs were determined in triplicate by serial two-fold dilutions of the test compounds. […] Bacterial growth was determined by measuring the absorption at 650 nm using a microtiter enzyme-linked immunosorbent assay (ELISA) reader (Molecular Devices Corporation, Sunnyvale, CA, USA).

E. coli DNA gyrase = molecular target: T1, E. coli DNA gyrase (Escherichia coli, UniProt P0AES4+P0AES6); experiment: DNA gyrase supercoiling assay; type: biochemical
T1 construct: purchased TopoGEN TG2001G
Experimental: The inhibitory activities of coralmycins on the supercoiling activity of DNA gyrase were investigated using a ‘Purified E. coli DNA Gyrase Drug Screening Kit’ (TopoGEN #TG2001G, Buena Vista, CO, USA). […] The reaction was terminated by the addition of 2 μL of 10% (w/v) SDS and 2 μL of 10× DNA gel loading dye (bromophenol blue). Then, 20 μL of chloroform:isoamyl alcohol (24:1 mixture) was added, and the mixture was vortexed and then centrifuged. The samples in the blue phase were run on 1% (w/v) agarose gel and were visualized using ethidium bromide. All reactions were performed in triplicate. To calculate the IC50 values, the band densities were measured using ImageJ (National Institutes of Health, Bethesda, Maryland, MD, USA).

MRSA CCARM 3167 = experiment: Antibacterial susceptibility, broth microdilution MIC; type: cell-based; conditions: Staphylococcus aureus, 24-h incubation at 37 °C
Experimental: as §1

[7] = KCTC1682, 24-h incubation at 37 °C, Table 6 and Table S1, read-out: MIC
[8] = KCTC1682, Table 7, read-out: MIC, antibacterial activity on E. coli KCTC 1682
[9] = relaxed plasmid, 37 °C for 30 min, agarose gel band densities, read-out: IC50, inhibition of the supercoiling activity of E. coli DNA gyrase
[10] = CCARM3519, QRSA CCARM 3519, 24-h incubation at 37 °C, read-out: MIC
[11] = CCARM3505, QRSA CCARM 3505, 24-h incubation at 37 °C, read-out: MIC
[12] = KCTC1682, 24 h, Table 7, read-out: MIC, antibacterial activity on E. coli KCTC 1682

T1 sequence (P0AES4 whole entry, one chain of several): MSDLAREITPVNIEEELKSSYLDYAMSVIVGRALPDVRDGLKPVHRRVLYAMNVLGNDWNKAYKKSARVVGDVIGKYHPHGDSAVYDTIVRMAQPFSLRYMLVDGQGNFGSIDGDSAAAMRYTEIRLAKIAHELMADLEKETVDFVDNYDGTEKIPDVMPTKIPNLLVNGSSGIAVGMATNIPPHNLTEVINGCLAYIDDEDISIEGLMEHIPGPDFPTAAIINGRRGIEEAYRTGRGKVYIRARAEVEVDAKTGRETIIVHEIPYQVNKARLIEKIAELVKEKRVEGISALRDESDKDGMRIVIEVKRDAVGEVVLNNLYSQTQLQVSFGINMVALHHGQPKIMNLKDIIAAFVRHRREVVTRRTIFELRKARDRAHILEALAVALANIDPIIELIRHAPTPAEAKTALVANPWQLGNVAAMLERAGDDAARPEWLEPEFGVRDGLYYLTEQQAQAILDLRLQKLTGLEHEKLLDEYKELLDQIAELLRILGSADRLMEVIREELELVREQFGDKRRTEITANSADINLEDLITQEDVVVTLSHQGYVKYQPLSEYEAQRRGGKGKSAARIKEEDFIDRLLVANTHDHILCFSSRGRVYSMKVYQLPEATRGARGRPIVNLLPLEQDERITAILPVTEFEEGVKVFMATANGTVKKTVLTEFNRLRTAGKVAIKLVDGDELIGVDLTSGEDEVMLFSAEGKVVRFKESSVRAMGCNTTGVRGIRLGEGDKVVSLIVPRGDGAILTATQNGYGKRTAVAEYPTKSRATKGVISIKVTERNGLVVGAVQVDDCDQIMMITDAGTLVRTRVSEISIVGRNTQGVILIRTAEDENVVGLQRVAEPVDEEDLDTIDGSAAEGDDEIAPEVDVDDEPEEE

Structure (SMILES)	MIC [1] [µg/mL]	MIC [2] [µg/mL]	MIC [3] [µg/mL]	MIC (MRSA CCARM 3506) [µg/mL]	MIC (E. coli KCTC 1682; [7]) [µg/mL]	MIC (E. coli KCTC 1682; [8]) [µg/mL]	MIC [4] [µg/mL]	MIC [5] [µg/mL]	MIC (E. coli CCARM 1356) [µg/mL]	MIC [6] [µg/mL]	pIC50 (E. coli DNA gyrase; [9])	MIC (QRSA CCARM 3519; [10]) [µg/mL]	growth inhibition of K. pneumonia [3]	MIC (QRSA CCARM 3505; [11]) [µg/mL]	MIC (MRSA CCARM 3167) [µg/mL]	further results
O=C(O)c1cn(C2CC2)c2cc(N3CCNCC3)c(F)cc2c1=O [Cip, Ciprofloxacin, reference compound]	0.03 (≈ 0.0905 µM)	0.5 (≈ 1.51 µM)	0.015 (≈ 0.0453 µM)	2 (≈ 6.04 µM)	0.06 (≈ 0.181 µM)	0.06 (≈ 0.181 µM)	0.25 (≈ 0.754 µM)	0.25 (≈ 0.754 µM)	64 (≈ 193 µM)							MIC (QRSA CCARM 3519; CCARM3519, 24 h): 128 µg/mL (≈ 386 µM); MIC (QRSA CCARM 3505; CCARM3505, 24 h): 128 µg/mL (≈ 386 µM)
CO[C@@H](C(N)=O)[C@H](NC(=O)c1ccc(NC(=O)c2ccc(N)cc2)cc1)C(=O)Nc1ccc(C(=O)Nc2ccc(C(=O)Nc3ccc(C(=O)O)cc3OC(C)C)c(O)c2OC(C)C)cc1 [Compound 2, Coralmycin D]	> 32	1 (≈ 1.12 µM)	> 32	0.5 (≈ 0.562 µM)	1 (≈ 1.12 µM)	1 (≈ 1.12 µM)	2 (≈ 2.25 µM)	4 (≈ 4.49 µM)	1 (≈ 1.12 µM)	0.25 (≈ 0.281 µM)	6.29	1 (≈ 1.12 µM)	did not inhibit the growth	1 (≈ 1.12 µM)	0.5 (≈ 0.562 µM)	growth inhibition of P. aeruginosa ([1]; at 32 μg/mL): did not inhibit the growth
CCOc1cc(C(=O)O)ccc1NC(=O)c1ccc(NC(=O)c2ccc(N)cc2)c(OCC)c1O [Compound 4, Coralmycin F]	> 32	> 32	> 32	> 32	> 32	> 32	> 32	> 32	> 32	> 32		> 32		> 32	> 32	pIC50 (E. coli DNA gyrase): < 3.52
COc1cc(C(=O)O)ccc1NC(=O)c1ccc(NC(=O)c2ccc(N)cc2)c(OC(C)C)c1O [Compound 5, Coralmycin G]	> 32	> 32	> 32	> 32	> 32		> 32	> 32	> 32	> 32		> 32		> 32	> 32	
CCOc1c(NC(=O)c2ccc(N)cc2)ccc(C(=O)Nc2ccc(C(=O)O)cc2OC(C)C)c1O [Compound 6, Coralmycin H]	> 32	> 32	> 32	> 32	> 32		> 32	> 32	> 32	> 32		> 32		> 32	> 32	
CCOc1cc(C(=O)O)ccc1NC(=O)c1ccc(NC(=O)c2ccc(N)cc2)c(OC(C)C)c1O [Compound 7, Coralmycin I]	> 32	> 32	> 32	> 32	> 32		> 32	> 32	> 32	> 32		> 32		> 32	> 32	
COc1cc(C(=O)O)ccc1NC(=O)c1ccc(NC(=O)c2ccc(NC(=O)[C@@H](NC(=O)c3ccc(NC(=O)c4ccc([N+](=O)[O-])cc4)cc3)[C@@H](OC)C(N)=O)cc2)c(OC(C)C)c1O [Compound 8, cystobactamid 891-2]	4 (≈ 4.49 µM)	1 (≈ 1.12 µM)	> 32	0.125 (≈ 0.14 µM)	0.25 (≈ 0.28 µM)		2 (≈ 2.24 µM)	1 (≈ 1.12 µM)	0.5 (≈ 0.561 µM)	0.25 (≈ 0.28 µM)	7.30	1 (≈ 1.12 µM)	did not inhibit the growth	2 (≈ 2.24 µM)	0.5 (≈ 0.561 µM)	antibacterial activities against P. aeruginosa [1]: weak antibacterial activities; MIC (E. coli KCTC 1682; [12]): 0.25 µg/mL (≈ 0.28 µM)
CCOc1cc(C(=O)O)ccc1NC(=O)c1ccc(NC(=O)c2ccc(NC(=O)[C@@H](NC(=O)c3ccc(NC(=O)c4ccc([N+](=O)[O-])cc4)cc3)[C@@H](OC)C(N)=O)cc2)c(OC(C)C)c1O [Compound 9, cystobactamid 905-2]	8 (≈ 8.83 µM)	0.5 (≈ 0.552 µM)	> 32	0.25 (≈ 0.276 µM)	0.5 (≈ 0.552 µM)		1 (≈ 1.1 µM)	0.5 (≈ 0.552 µM)	1 (≈ 1.1 µM)	0.125 (≈ 0.138 µM)	6.89	1 (≈ 1.1 µM)	did not inhibit the growth	2 (≈ 2.21 µM)	0.25 (≈ 0.276 µM)	antibacterial activities against P. aeruginosa [1]: weak antibacterial activities; MIC (E. coli KCTC 1682; [12]): 0.25 µg/mL (≈ 0.276 µM)
CO[C@H](C(=O)O)[C@H](NC(=O)c1ccc(NC(=O)c2ccc([N+](=O)[O-])cc2)cc1)C(=O)Nc1ccc(C(=O)Nc2ccc(C(=O)Nc3ccc(C(=O)O)cc3OC(C)C)c(O)c2OC(C)C)cc1 [Compound 13, coralmycin B, reference compound]	> 16	4 (≈ 4.34 µM)	> 16	1 (≈ 1.09 µM)	4 (≈ 4.34 µM)	4 (≈ 4.34 µM)	> 16	4 (≈ 4.34 µM)	16 (≈ 17.4 µM)	2 (≈ 2.17 µM)	5.97				1 (≈ 1.09 µM)	
